Data taken from US11221329B2, “Treatment of neurological and neurodevelopmental diseases and disorders associated with aberrant ion channel expression and activity” (LIEBER INSTITUTE FOR BRAIN DEVELOPMENT, priority 2015, dated 2022).
“Also recorded” adds a separate entry of the source.

Assays:
[1] = tested on: TCF4+/tr cells; test: Whole-cell current-clamp AP spiking in mPFC layer 2/3 neurons of the PTHS mouse model; type: cell-based
Description: (§1) In the mouse model used for Pitt-Hopkins syndrome (Sweatt, 2013) mice are heterozygous for a deletion of the DNA-binding domain of the Transcription Factor 4 (B6; 129-TCF4tm1Zhu/J; stock number 013598, Jackson Laboratory, Bar Harbor, Me.) (Zhuang et al., 1996). Control mouse experiments were conducted with wild-type littermates. Mice were maintained by SoBran on a 12-hour light cycle and fed ad libitum.
(§2) Acute brain slices were obtained from rats and mice as described previously (Maher and Loturco, 2012b). […]
(§3) For all experiments, artificial cerebrospinal fluid (ACSF) was oxygenated (95% O2 and 5% CO2) and contained in (in mM): 125 NaCl, 25 NaHCO3, 1.25 NaH2PO4, 3 KCl, 25 dextrose, 1 MgCl2, and 2 CaCl2, pH 7.3. […] Current signals were recorded with either a Multiclamp 700A (Molecular Devices) or with an Axopatch 200B amplifier (Molecular Devices) and were filtered at 2 kHz using a built-in Bessel filter and digitized at 10 kHz. […]
(§4) Axograph was used on a Macintosh computer for analysis. […] Each current pulse was measured in triplicate, and the number of resulting APs was averaged. For analysis of fAHP amplitude, the second and third current evoked spikes within the 600 ms pulse were measured. The fAHP potential was measured by subtracting the voltage at the peak of the fAHP from the threshold potential for spike initiation (slope of AP exceeds 50 mV/ms). […]

[2] = tested on: prefrontal neurons from wildtype littermates; test: Whole-cell current-clamp AP output in prefrontal neurons from wildtype littermates; type: cell-based, mouse
Description: as §1, §2, §3, §4

[3] = tested on: shTCF4 cells; test: Whole-cell current-clamp recordings (AP spiking, mAHP/sAHP) in shTCF4 (TCF4 knockdown) mPFC layer 2/3 pyramidal neurons, acute brain slices; type: cell-based, rat; settings: shTCF4 cells
Description: (§5) Pregnant Wistar rats were obtained from Charles River Laboratories, Inc., maintained by SoBran on a 12-hour light cycle and fed ad libitum. In utero electroporation was performed as previously described (Chen et al., 2014; Maher and Loturco, 2012a). Electroporation was performed on embryonic day 16 (E16) and gestation age was confirmed during surgery. All plasmids were used at a final concentration of 1.5 μg/μl, and the mPFC was targeted for transfection. Pregnant dams were returned to the same housing conditions after recovery from surgery, and after litters were born, transfected rats were used for experiments at days P18-24.
(§6) Acute brain slices were obtained from rats and mice as described previously (Maher and Loturco, 2012b). Briefly, P18-24 male and female animals were deeply anesthetized with isoflurane and transcardially perfused with ice-cold oxygenated (95% O2 and 5% CO2) dissecting buffer containing (in mM): 83 NaCl, 2.5 KCl, 1 NaH2PO4, 26.2 NaHCO3, 22 glucose, 72 sucrose, 0.5 CaCl2, and 3.3 MgCl2. Animals were humanly sacrificed and decapitated and the brains were rapidly removed and immersed in ice-cold oxygenated dissection buffer. Coronal slices (300 μm) were cut using a vibratome (Microm HM650V), incubated in dissection buffer for 30-45 minutes at 34° C., and then stored at room temperature. Slices were visualized using IR differential interference microscopy (DIC) (Olympus BX51WI) and a CCD camera (QICAM, QImaging). Individual layer 2/3 pyramidal cells expressing EGFP in rat brain slices were visualized with epifluorescent illumination and a 43× Olympus LUMPlanFLN (0.8 numerical aperture) objective.
(§7) For all experiments, artificial cerebrospinal fluid (ACSF) was oxygenated (95% O2 and 5% CO2) and contained in (in mM): 125 NaCl, 25 NaHCO3, 1.25 NaH2PO4, 3 KCl, 25 dextrose, 1 MgCl2, and 2 CaCl2, pH 7.3. Patch pipettes were fabricated from borosilicate glass (N51A, King Precision Glass, Inc.) to a resistance of 2-5 MΩ. For current- and voltage-clamp measurements, pipettes were filled with (in mM): 125 potassium gluconate, 10 HEPES, 4 Mg-ATP, 0.3 Na-GTP, 0.1 EGTA, 10 phosophocreatine, 0.05% biocytin, adjusted to pH 7.3 with KOH. For all experiments GABAa receptors were blocked with SR-95531 (Gabazine, 5 μM, Ascent Scientific). For AHP current experiments, synaptic currents were blocked with DL-2-amino-5-phosphopentanoic acid (D,L-AP5, 100 μM, Ascent Scientific), 2,3, dioxo-6-nitro-1,2,3,4, tetrahydrobenzo-quinoxaline-7-sulfonamide (NBQX, 10 μM) and SR-95531 (Gabazine, 5 μM, Ascent Scientific). Ca2+-activated currents were blocked with Tetraethylammonium chloride (TEA, 1 mM, Abcam), apamin (100 nM, Abcam), and carbachol (10 μM, Abcam). Current signals were recorded with either a Multiclamp 700A (Molecular Devices) or with an Axopatch 200B amplifier (Molecular Devices) and were filtered at 2 kHz using a built-in Bessel filter and digitized at 10 kHz. Voltage signals were filtered at 2 kHz and digitized at 10 kHz. Data were acquired using Axograph on a Dell PC. Data acquisition was terminated when series resistance was >15 MΩ. For voltage clamp recordings, pyramidal cells were held at −60 mV. No holding current was used for current-clamp recordings.
(§8) Axograph was used on a Macintosh computer for analysis. To measure spike frequency, EGFP-positive layer 2/3 neurons of the mPFC were injected with a 600 ms depolarizing current pulses ranging from 50 to 500 pA at 50 pA increments with an 10 s inter-trial interval. Each current pulse was measured in triplicate, and the number of resulting APs was averaged. For analysis of fAHP amplitude, the second and third current evoked spikes within the 600 ms pulse were measured. The fAHP potential was measured by subtracting the voltage at the peak of the fAHP from the threshold potential for spike initiation (slope of AP exceeds 50 mV/ms). The mAHP potential was measured at the peak of the AHP that followed the 600 ms current pulse. […]

[4] = tested on: crEmpty cells; test: Whole-cell current-clamp AP spiking in crEmpty (CRISPR control) mPFC neurons; type: cell-based, rat
Description: as §5, §2
(§9) For all experiments, artificial cerebrospinal fluid (ACSF) was oxygenated (95% O2 and 5% CO2) and contained in (in mM): 125 NaCl, 25 NaHCO3, 1.25 NaH2PO4, 3 KCl, 25 dextrose, 1 MgCl2, and 2 CaCl2, pH 7.3. […] Current signals were recorded with either a Multiclamp 700A (Molecular Devices) or with an Axopatch 200B amplifier (Molecular Devices) and were filtered at 2 kHz using a built-in Bessel filter and digitized at 10 kHz.

[5] = tested on: crTCF4 cells; test: Whole-cell current-clamp AP spiking in crTCF4 (CRISPR-Cas9 TCF4 mutated) mPFC neurons; type: cell-based, rat
Description: as §5, §2, §9

[6] = tested on: shCon cells; test: Whole-cell current-clamp recordings (AP spiking, mAHP/sAHP) in shCon (control shRNA) mPFC layer 2/3 pyramidal neurons, acute brain slices; type: cell-based, rat
Description: as §5, §6, §7, §8

[7] = target: KCNQ2 (Homo sapiens, UniProt O43526); settings: KCNQ subtype-selective blocker; Soh and Tzingounis, 2010; cited from earlier work
[8] = target: KCNQ1 (Homo sapiens, UniProt P51787); settings: KCNQ subtype-selective blocker; Soh and Tzingounis, 2010; cited from earlier work

Compound | effect on the frequency of APs ([1]; A-803467, significant for current pulses 250-350 pA, N=8) | effect on action potential output ([2]; A-803467, p=0.06, N=5) | effect on the frequency of APs generated in response to increasing current injections ([3]; A-803467 200 nM bath application, significant for current pulses 350-500 pA, N=11, p<0.05) | effect on AP frequency ([4]; A-803467, p=0.15) | effect on the frequency of APs ([5]; A-803467, significant for current pulses 400-500 pA, N=8, p=0.039) | effect on firing frequency ([6]; A-803467, N=7, p=0.14) | inhibition of KCNQ2 [7] | effect on the frequency of AP spiking ([1]; UCL2077, N=8) | effect on action potential output ([2]; UCL2077, p=0.58, N=11) | effect on the frequency of APs generated in response to current injections ([3]; UCL2077 10 μM, before vs after, within neuron, significant for current pulses 250-500 pA, N=17, p=0.0002) | amplitude of the sAHP after application ([3]; UCL2077, before −2.88±0.42 mV, N=19, p<0.05) [mV] | amplitude of the mAHP after application ([3]; UCL2077, before −4.43±0.55 mV, N=19, p=0.003) [mV] | inhibition of KCNQ1 [8] | effect on AP frequency ([4]; UCL2077, p=0.99) | effect on the frequency of APs ([5]; UCL2077, significant for current pulses 400-500 pA, N=7, p=0.045) | effect on the frequency of APs (spiking) ([6]; UCL2077, N=8, p=0.35) | amplitude of the sAHP after application ([6]; UCL2077, before −2.60±0.42 mV, N=9, not significant) [mV] | amplitude of the mAHP after application ([6]; UCL2077, before −3.78±0.66 mV, N=9, not significant) [mV]
COc1cc(NC(=O)c2ccc(-c3ccc(Cl)cc3)o2)cc(OC)c1 [A-803467, 5-(4-Chlorophenyl)-N-(3,5-dimethoxyphenyl)-2-furancarboxamide] | effective at rescuing AP output; also recorded: significantly increased firing frequency | has no effect on action potential output | effective at increasing firing frequency; also recorded: significantly increased firing | had no effect on firing frequency; also recorded: No effect on AP frequency | effective at increasing firing frequency; also recorded: significantly increased firing frequency | had no effect on firing frequency |  |  |  |  |  |  |  |  |  |  |  | 
c1ccc(C(NCc2cccnc2)(c2ccccc2)c2ccccc2)cc1 [UCL2077, N-Trityl-3-pyridinemethanamine] |  |  |  |  |  |  | strongly inhibits | had no effect; also recorded: has no effect on the frequency of AP spiking | has no effect on action potential output | effective at increasing the spiking frequency; also recorded: significantly increased firing frequency | −2.53±0.38 | −3.736±0.49 | strongly inhibits | No effect on AP frequency | significantly increased firing frequency | neither UCL2077 (p=0.35) nor JNJ303 (p=0.11) had an effect on spiking | −2.69±0.48 | −4.01±0.66
